Results: publication PMC3361628 (European Journal of Medicinal Chemistry, 2012)

Legend:
mice = conditions: mouse, in vivo; cited from earlier work
Trypanosoma rhodesiense = conditions: in vivo, 320 mg/kg; cited from earlier work
BoNT/A LC = BoNT/A LC (Clostridium botulinum, UniProt P0DPI0); type: biochemical
BoNT/A LC, sequence (P0DPI0 2-448 limits assumed): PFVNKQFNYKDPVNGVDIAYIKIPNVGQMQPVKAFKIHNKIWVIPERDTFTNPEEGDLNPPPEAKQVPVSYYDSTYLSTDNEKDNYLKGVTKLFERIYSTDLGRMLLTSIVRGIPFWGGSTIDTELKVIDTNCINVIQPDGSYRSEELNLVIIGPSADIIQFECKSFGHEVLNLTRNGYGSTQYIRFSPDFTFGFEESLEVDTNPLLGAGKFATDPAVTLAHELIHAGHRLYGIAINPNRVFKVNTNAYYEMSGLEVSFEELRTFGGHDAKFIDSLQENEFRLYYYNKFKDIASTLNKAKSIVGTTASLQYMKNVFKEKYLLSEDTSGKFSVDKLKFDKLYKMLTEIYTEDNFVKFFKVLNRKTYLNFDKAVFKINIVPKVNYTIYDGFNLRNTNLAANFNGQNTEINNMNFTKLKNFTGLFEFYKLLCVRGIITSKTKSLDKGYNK

Compound | decrease in inhibitory potency versus 4b (BoNT/A LC) | also measured
Cl.Cl.N=C(N)c1ccc(-c2ccc(-c3ccc(C(=N)N)cc3)s2)cc1 [Compound 1, 4,4′-Thiene-2,5-diyldibenzenecarboximidamide dihydrochloride] | – | toxicity to mice (mice): non-toxic; survival (Trypanosoma rhodesiense): 100%
Clc1ccc2c(NCCCCNCc3ccc(-c4ccc(-c5ccc(CNCCCCNc6ccnc7cc(Cl)ccc67)cc5)s4)cc3)ccnc2c1.O=C(O)C(F)(F)F [Compound 4c, 4,4′-[thiene-2,5-diylbis(4,1-phenylenemethyleneammoniobutane-4,1-diylimino)]bis(7-chloroquinolinium) tetra(trifluoroacetate)] | approx. 1.8 fold | –
Clc1ccc2c(NCCCCCNCc3ccc(-c4ccc(-c5ccc(CNCCCCCNc6ccnc7cc(Cl)ccc67)cc5)s4)cc3)ccnc2c1.O=C(O)C(F)(F)F [Compound 4d, 4,4′-[thiene-2,5-diylbis(4,1-phenylenemethyleneammoniopentane-5,1-diylimino)]bis(7-chloroquinolinium) tetra(trifluoroacetate)] | approx. 3 fold | –
Clc1ccc2c(NCCNCc3ccc(-c4ccc(-c5ccc(CNCCNc6ccnc7cc(Cl)ccc67)cc5)s4)cc3)ccnc2c1.O=C(O)C(F)(F)F [Compound 4a, 4,4′-[Thiene-2,5-diylbis(4,1-phenylenemethyleneammonioethane-2,1-diylimino)]bis(7-chloroquinolinium) tetra(trifluoroacetate)] | approx. 3 fold | –
O=C(NCCCNc1ccnc2cc(Cl)ccc12)c1cc(NC(=O)c2ccc(C(=O)Nc3cc(C(=O)NCCCNc4ccnc5cc(Cl)ccc45)cc(C4=NCCN4)c3)cc2)cc(C2=NCCN2)c1 [II, reference compound] | – | increase in inhibitory potency versus I (BoNT/A LC): approx. 15 fold
